Literature values, collected in patent US20090048181A1, “Combination therapy with glatiramer acetate and n-acetylcysteine for the treatment of multiple sclerosis” (priority 2004, published 2009).

Experiments:
[1] = tested on: EAE, a murine model of multiple sclerosis
[2] = tested on: TNF-α; details: ten human patients suffering from multiple sclerosis; efficacy could not be ascertained
[3] = tested on: relapsing-remitting multiple sclerosis; details: daily subcutaneous injections, 20 mg/injection

Compound | induction of EAE ([1]; SJL/J mice, oral administration) | effect in animals with established EAE ([1]; established EAE, correlated with treatment in a dose-related manner) | TNF-α level [2] | appearance of "black holes" [3] | appearance of new lesions by magnetic resonance imaging (MRI) [3] | progression of disability [3] | relapse rates [3]
CC(=O)N[C@@H](CS)C(=O)O [N-acetylcysteine] | attenuated | improvement | elevation | – | – | – | –
L-glutamic acid polymer with L-alanine, L-lysine and L-tyrosine, acetate (salt) [glatiramer acetate] | – | – | – | reduce | reduce | reduce | reduce
